Results as given in article PMC6466588, “Characterization and Antimicrobial Activity of Amphiphilic Peptide AP3 and Derivative Sequences” (Antibiotics, 2019).
No end group written: not given here.

What was measured:
[1] = tested on: E. coli; format: cell-based; conditions: 18 h
Procedure: (§1) The antibacterial activities of each peptide were determined against various Gram-negative and Gram-positive bacteria using minimum inhibitory concentration (MIC) assays. The MIC is defined as the lowest concentration of peptide that prevents growth of bacteria using the optical density at 600 nm under standard growth conditions.
(§2) Bacteria were streaked from frozen stocks onto Difco LB-miller agar (BD, Franklin Lakes, NJ, USA) plates (E. coli MG1655 ATCC 47076, E. coli D31 [34], S. aureus ATCC25923, P. aeruginosa ATCC10145, K. pneumoniae 700603). Streaked plates were grown overnight at 37 °C and subsequently stored at 4 °C.
(§3) To prepare overnight cultures, a single colony of each bacterial strain was added to LB broth (Difco) in sterile culture tubes. Tubes were placed in the shaking incubator at 37 °C overnight to allow for sufficient bacterial growth. After incubation, dilutions of the overnight culture were made in LB (1:100) or Muller-Hinton broth (Criterion) (1:250) for MIC assay protocols (Hardy Diagnostics, Santa Maria, CA, USA).
(§4) Minimal inhibitory concentrations (MIC) were determined for each peptide The MIC assay was set up by adding 10 µL of the peptide stock solutions to wells of a sterile 96-well plate to which […] of diluted bacterial culture was added. The final bacterial load was ~5.0 × 10^5 cfu/mL as calculated from the Optical Density^@ 600 nm (OD600) measurements of a log-phase culture. The assay plate was incubated at 37 °C for 18 h. Bacterial growth was assayed by absorbance at OD600 using Multiskan microplate reader (Thermo Fisher, Waltham, MA, USA). […] All MIC values are averages of at least triplicate samples.

[2] = tested on: K. pneumoniae 700603; format: cell-based; conditions: 700603, 18 h
Procedure: as §1, §2, §3, §4

[3] = tested on: P. aeruginosa ATCC10145; format: cell-based; conditions: ATCC10145, 18 h
Procedure: as §1, §2, §3, §4

[4] = tested on: S. aureus ATCC25923; format: cell-based; conditions: ATCC25923, 18 h
Procedure: as §1, §2, §3, §4

[5] = tested on: HEK-293 cells; test: Mammalian cell viability, MTT assay; format: cell-based, Human; conditions: HEK-293, MTT, 24 h, 37 °C, triplicate
Procedure: The cells were treated with five different concentrations of each peptide ranging from 0.0015 µM to 15 µM for a total of 24 h before viability measurements were performed.
Figure 6 Mammalian cell viability assay—Effects of AP3 peptides on HEK-293 cell viability assayed by MTT metabolic breakdown. A standard density of HEK-293 cells was incubated with serially diluted peptides for 24 h at 37 °C before the assay was performed. Percent viability was normalized to MTT breakdown observed in untreated controls. Color coding of the graph is AP3 (red), AP3K (blue), APX (purple), APX-17 (black), and APX-12 (green). All data represent the average of at least three replicates and error bars represent the standard deviation.
Cellular toxicity of specific peptides was determined by MTT ((3-(4,5-Dimethylthiazol-2-yl)-2,5-Diphenyltetrazolium Bromide)) assay. Human embryonic kidney (HEK) 293 cells with a lenti-CRE luciferase reporter gene were seeded in 96-well plates at a density of 1.5 × 10^4 cells per well and incubated with 5% CO2 at 37 °C for 24 h. Then, cells were treated with appropriate concentrations of peptides (0.0015–15 µM) and control for 24 h. After treatment for 24 h, 10 µL of MTT solution (5 mg MTT/mL PBS) was added to all wells and incubated for 4 h. Then, DMSO was added as a solubilizing agent and the absorbance was recorded at 540 nm. Each peptide concentration was performed in triplicate.

| Substance | MIC [1] | MIC [2] | MIC [3] | MIC [4] | cytotoxicity, dead cells ([5]; 1.5 µM peptide) | cytotoxicity, dead cells ([5]; 15 µM peptide) |
| --- | --- | --- | --- | --- | --- | --- |
| GWKTLLKKAEVKTVGKLALKHYL-NH2 [AP3K] | 9.3 µM | >9.30 µM | 0.29 µM | 2.32 µM | ~ 18% | ~ 40% |
| GWRTLLKKAEVKTVGKLALKHYL-NH2 [AP3] | 8.3 µM | 4.15 µM |  | 4.15 µM | ~ 18% |  |
| GYRTLLKKAEVKTVGKLALKHWL-NH2 [APX] | >15.0 µM | >15.0 µM | 15 µM | 15 µM |  |  |
| KKAEVKTVGKLALKHWL-NH2 [APX-17] | >8.00 µM | >8.00 µM | >8.00 µM | >8.00 µM |  |  |
| KTVGKLALKHWL-NH2 [APX-12] | >15.0 µM | >15.0 µM | >15.0 µM | >15.0 µM |  |  |
